This is an account of results in US9549932B2, “2-(morpholin-4-yl)-1,7-naphthyridines” (BAYER PHARMA AKTIENGESELLSCHAFT, priority 2014, dated 2017).

This experiment deals with full-length human ATR protein (Homo sapiens (Human), UniProt Q13535). The experiment is described as follows: Binding assay ATR (TR-FRET tracer displacement). The settings on record: tracer A, TR-FRET; read-out: ATR binding (tracer A) IC50. In short, it runs like this: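 Full-length human GST-ATR co-purified with ATRIP, pre-complexed 30 min at 22 °C with anti-GST-Tb antibody, then pre-bound with compound 10 min. Tracer A or B added (2 µl of 100 nM solution), 30 min at 22 °C.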
Sequence of full-length human ATR protein (Q13535 other isoform, or with tags, fused parts or gaps): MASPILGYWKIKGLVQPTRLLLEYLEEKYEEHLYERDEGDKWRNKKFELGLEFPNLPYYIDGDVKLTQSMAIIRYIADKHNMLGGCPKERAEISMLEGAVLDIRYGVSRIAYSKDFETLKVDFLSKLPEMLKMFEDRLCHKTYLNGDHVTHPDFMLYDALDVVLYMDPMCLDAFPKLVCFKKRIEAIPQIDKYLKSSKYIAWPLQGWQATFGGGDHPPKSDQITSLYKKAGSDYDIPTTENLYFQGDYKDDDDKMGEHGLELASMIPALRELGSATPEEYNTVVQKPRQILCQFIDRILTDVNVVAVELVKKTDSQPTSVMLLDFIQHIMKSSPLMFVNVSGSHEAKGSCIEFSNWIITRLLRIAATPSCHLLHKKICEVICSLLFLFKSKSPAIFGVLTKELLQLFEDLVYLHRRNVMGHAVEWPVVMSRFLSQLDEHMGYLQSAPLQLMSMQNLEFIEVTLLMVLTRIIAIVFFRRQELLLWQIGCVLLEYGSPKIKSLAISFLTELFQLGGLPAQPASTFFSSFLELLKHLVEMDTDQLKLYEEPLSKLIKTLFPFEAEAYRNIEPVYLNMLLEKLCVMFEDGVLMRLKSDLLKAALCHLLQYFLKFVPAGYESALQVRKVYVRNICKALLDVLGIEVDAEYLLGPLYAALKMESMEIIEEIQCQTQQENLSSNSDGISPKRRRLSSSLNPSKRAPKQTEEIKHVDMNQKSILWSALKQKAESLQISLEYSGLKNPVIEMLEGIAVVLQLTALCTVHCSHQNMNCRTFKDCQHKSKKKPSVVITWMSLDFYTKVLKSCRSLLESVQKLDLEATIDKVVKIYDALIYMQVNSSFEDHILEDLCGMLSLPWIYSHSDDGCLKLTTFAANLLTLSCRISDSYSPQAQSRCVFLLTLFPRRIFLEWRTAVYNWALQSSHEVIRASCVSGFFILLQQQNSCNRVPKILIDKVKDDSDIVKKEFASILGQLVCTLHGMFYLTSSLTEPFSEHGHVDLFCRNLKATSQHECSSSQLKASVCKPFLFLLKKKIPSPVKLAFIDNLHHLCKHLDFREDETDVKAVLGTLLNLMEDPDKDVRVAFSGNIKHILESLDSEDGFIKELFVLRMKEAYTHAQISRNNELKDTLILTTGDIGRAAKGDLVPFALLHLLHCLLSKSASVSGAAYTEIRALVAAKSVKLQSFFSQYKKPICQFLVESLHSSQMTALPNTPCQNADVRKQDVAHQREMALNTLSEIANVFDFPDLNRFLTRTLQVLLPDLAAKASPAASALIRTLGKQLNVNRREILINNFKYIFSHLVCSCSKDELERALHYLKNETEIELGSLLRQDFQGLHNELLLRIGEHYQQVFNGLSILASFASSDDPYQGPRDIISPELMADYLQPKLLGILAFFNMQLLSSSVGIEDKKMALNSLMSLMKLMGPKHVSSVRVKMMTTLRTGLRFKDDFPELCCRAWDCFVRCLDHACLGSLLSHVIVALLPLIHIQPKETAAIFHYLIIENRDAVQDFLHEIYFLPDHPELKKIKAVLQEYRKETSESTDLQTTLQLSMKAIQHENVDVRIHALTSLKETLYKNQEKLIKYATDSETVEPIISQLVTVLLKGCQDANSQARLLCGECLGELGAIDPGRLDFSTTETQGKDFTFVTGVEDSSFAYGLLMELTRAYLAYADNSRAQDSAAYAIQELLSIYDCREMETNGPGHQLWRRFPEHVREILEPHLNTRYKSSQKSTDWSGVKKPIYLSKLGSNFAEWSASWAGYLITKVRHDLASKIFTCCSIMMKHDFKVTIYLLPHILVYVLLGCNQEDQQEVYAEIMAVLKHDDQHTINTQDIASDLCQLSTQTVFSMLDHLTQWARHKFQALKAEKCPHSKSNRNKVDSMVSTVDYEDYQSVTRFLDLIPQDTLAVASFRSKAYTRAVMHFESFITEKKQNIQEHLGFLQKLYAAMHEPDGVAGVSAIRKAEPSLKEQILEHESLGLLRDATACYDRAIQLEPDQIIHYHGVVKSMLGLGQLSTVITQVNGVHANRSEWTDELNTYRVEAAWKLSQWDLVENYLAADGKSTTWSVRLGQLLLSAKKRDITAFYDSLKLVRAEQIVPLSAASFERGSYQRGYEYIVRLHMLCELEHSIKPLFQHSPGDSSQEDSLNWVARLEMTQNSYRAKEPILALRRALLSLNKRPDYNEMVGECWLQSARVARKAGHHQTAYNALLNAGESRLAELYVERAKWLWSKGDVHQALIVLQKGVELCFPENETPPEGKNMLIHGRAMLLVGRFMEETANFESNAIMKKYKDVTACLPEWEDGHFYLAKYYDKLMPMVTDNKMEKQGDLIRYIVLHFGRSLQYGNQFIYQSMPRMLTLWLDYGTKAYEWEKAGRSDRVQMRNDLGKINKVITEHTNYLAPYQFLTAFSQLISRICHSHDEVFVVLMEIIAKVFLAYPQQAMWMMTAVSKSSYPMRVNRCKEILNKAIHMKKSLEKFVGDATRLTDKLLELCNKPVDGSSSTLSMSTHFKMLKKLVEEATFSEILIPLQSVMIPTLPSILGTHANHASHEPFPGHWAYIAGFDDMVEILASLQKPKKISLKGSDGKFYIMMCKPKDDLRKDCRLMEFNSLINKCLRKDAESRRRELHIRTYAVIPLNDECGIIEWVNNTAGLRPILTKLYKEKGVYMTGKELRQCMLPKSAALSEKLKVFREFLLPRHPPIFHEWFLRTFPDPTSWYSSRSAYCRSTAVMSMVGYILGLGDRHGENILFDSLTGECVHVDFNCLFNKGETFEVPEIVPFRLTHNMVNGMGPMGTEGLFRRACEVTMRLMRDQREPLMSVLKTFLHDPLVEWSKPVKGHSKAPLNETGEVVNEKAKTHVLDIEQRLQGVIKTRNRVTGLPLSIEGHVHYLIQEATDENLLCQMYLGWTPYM
Sequence of full-length human ATR protein (Q8WXE1 other isoform, or with tags, fused parts or gaps partner): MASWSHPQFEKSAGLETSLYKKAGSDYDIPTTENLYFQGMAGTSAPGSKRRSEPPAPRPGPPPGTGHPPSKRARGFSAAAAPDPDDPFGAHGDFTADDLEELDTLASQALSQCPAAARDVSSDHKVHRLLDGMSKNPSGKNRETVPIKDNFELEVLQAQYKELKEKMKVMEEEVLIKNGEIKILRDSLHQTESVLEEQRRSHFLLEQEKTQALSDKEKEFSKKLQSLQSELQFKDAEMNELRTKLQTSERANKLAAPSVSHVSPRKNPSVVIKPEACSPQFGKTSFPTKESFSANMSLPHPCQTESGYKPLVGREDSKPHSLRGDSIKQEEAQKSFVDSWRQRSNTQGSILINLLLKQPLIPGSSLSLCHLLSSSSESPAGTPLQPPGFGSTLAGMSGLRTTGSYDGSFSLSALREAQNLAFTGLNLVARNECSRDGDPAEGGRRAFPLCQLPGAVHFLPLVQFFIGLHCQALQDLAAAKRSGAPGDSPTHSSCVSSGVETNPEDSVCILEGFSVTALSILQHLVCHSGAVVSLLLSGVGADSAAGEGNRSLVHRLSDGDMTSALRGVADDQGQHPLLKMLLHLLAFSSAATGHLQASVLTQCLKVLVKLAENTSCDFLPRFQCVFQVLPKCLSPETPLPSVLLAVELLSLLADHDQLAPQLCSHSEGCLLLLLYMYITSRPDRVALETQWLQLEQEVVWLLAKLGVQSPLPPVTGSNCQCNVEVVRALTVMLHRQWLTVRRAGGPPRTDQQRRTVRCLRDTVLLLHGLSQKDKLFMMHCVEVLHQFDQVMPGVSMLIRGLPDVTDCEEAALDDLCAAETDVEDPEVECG
Background: Time-resolved FRET reads energy transfer from a long-lived donor to a nearby acceptor.

On to `Cc1ccsc1-c1cc(N2CCOC[C@H]2C)nc2c(-c3ccn[nH]3)nccc12` [Example 99, 2-[(3R)-3-methylmorpholin-4-yl]-4-(3-methyl-2-thienyl)-8-(1H-pyrazol-5-yl)-1,7-naphthyridine], for which the IC50 was found to be 6.38 nM.

On to `Cc1ccc(-c2cc(N3CCOC[C@H]3C)nc3c(-c4ccn[nH]4)nccc23)s1` [Example 100, 2-[(3R)-3-methylmorpholin-4-yl]-4-(5-methyl-2-thienyl)-8-(1H-pyrazol-5-yl)-1,7-naphthyridine], for which the IC50 came out at 16.5 nM.

As for `Cc1cscc1-c1cc(N2CCOC[C@H]2C)nc2c(-c3ccn[nH]3)nccc12` [Example 101, 2-[(3R)-3-methylmorpholin-4-yl]-4-(4-methyl-3-thienyl)-8-(1H-pyrazol-5-yl)-1,7-naphthyridine], the IC50 turned out to be 11.3 nM.

With `C[C@@H]1COCCN1c1cc(-c2sccc2Cl)c2ccnc(-c3ccn[nH]3)c2n1` [Example 102, 4-(3-chloro-2-thienyl)-2-[(3R)-3-methylmorpholin-4-yl]-8-(1H-pyrazol-5-yl)-1,7-naphthyridine], the IC50 came out at 12.3 nM.

`Cc1sccc1-c1cc(N2CCOC[C@H]2C)nc2c(-c3ccn[nH]3)nccc12` [Example 103, 2-[(3R)-3-methylmorpholin-4-yl]-4-(2-methyl-3-thienyl)-8-(1H-pyrazol-5-yl)-1,7-naphthyridine]: the IC50 was 10.1 nM.

As for `C[C@@H]1COCCN1c1cc(-c2ccnc3[nH]ccc23)c2ccnc(-c3ccn[nH]3)c2n1` [Example 104, 2-[(3R)-3-methylmorpholin-4-yl]-8-(1H-pyrazol-5-yl)-4-(1H-pyrrolo[2,3-b]pyridin-4-yl)-1,7-naphthyridine], the IC50 was 14.1 nM.

As for `Cc1noc(C)c1-c1cc(N2CCOC[C@H]2C)nc2c(-c3ccn[nH]3)nccc12` [Example 105, 4-(3,5-dimethyl-1,2-oxazol-4-yl)-2-[(3R)-3-methylmorpholin-4-yl]-8-(1H-pyrazol-5-yl)-1,7-naphthyridine], the concentration for half-maximal inhibition (IC50) is 8.67 nM.

As for `COc1nccc(-c2cc(N3CCOC[C@H]3C)nc3c(-c4ccn[nH]4)nccc23)c1Cl` [Example 106, 4-(3-chloro-2-methoxypyridin-4-yl)-2-[(3R)-3-methylmorpholin-4-yl]-8-(1H-pyrazol-5-yl)-1,7-napthyridine], the IC50 was 13.1 nM.

Regarding `C[C@@H]1COCCN1c1cc(C2=CCSCC2)c2ccnc(-c3ccn[nH]3)c2n1` [Example 108, 4-(3,6-dihydro-2H-thiopyran-4-yl)-2-[(3R)-3-methylmorpholin-4-yl]-8-(1H-pyrazol-5-yl)-1,7-naphthyridine], the IC50 is 11.5 nM.

Consider `CC1CCN(c2cc(N3CCOC[C@H]3C)nc3c(-c4ccn[nH]4)nccc23)CC1` [Example 109, 2-[(3R)-3-methylmorpholin-4-yl]-4-(4-methylpiperidin-1-yl)-8-(1H-pyrazol-5-yl)-1,7-naphthyridine], for which the IC50 was determined as 9.14 nM.

Regarding `C[C@@H]1COCCN1c1cc(-c2ccnn2C(C)(C)C)c2ccnc(-c3ccn[nH]3)c2n1` [Example 110, 4-(1-tert-butyl-1H-pyrazol-5-yl)-2-[(3R)-3-methylmorpholin-4-yl]-8-(1H-pyrazol-5-yl)-1,7-naphthyridine], the IC50 amounted to 13.5 nM.

With `Cc1cc(-c2cc(N3CCOC[C@H]3C)nc3c(-c4ccn[nH]4)nccc23)on1` [Example 112, 2-[(3R)-3-methylmorpholin-4-yl]-4-(3-methyl-1,2-oxazol-5-yl)-8-(1H-pyrazol-5-yl)-1,7-naphthyridine], the IC50 was determined as 4.74 nM.

In the case of `CCn1nc(C)cc1-c1cc(N2CCOC[C@H]2C)nc2c(-c3ccn[nH]3)nccc12` [Example 113, 4-(1-ethyl-3-methyl-1H-pyrazol-5-yl)-2-[(3R)-3-methylmorpholin-4-yl]-8-(1H-pyrazol-5-yl)-1,7-naphthyridine], the IC50 turned out to be 5.71 nM.

In the case of `Cc1cnn(C)c1-c1cc(N2CCOC[C@H]2C)nc2c(-c3ccn[nH]3)nccc12` [Example 114, 4-(1,4-dimethyl-1H-pyrazol-5-yl)-2-[(3R)-3-methylmorpholin-4-yl]-8-(1H-pyrazol-5-yl)-1,7-naphthyridine], the IC50 was determined as 7.35 nM.

A word on the IC50: it is the concentration at which inhibition is half-maximal.
